59 compounds from the METLIN SMRT retention time set (Domingo-Almenara et al. 2019) can be followed below.

This series in a line: gradient 5% acetonitrile 3 min, to 50% in 2 min, to 85% in 15 min, held 3 min, 100 µL/min. The note with it: column: Zorbax Extend-C18 2.1 x 50 mm; eluents: water / acetonitrile, 0.1% formic acid. The method in brief:
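A Zorbax Extend-C18 column (2.1 × 50 mm, 1.8 μm) run at 100 μL/min with water and acetonitrile, both containing 0.1% formic acid, separated mixtures of ~100 pure standards. The HPLC was coupled to a quadrupole time-of-flight mass spectrometer operated in positive and negative ionization mode, with dead and dwell volumes of 40 μL and 900 μL. Each retention time was taken from a computationally picked adduct peak that was then manually inspected.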
In the case of `O=C(Cn1nc(N2CCOCC2)c2ccccc2c1=O)Nc1ccc2c(c1)OCCO2`, the RP-LC retention time was 737 s. As for `Cn1nccc1C(=O)N1CCC(c2nncn2Cc2ccccc2)CC1`, the RP-LC retention time was 624 s. Under `O=C(NCC1(N2CCOCC2)CCOC1)Nc1cc(F)cc(F)c1` (centres undefined) stands 604 s; under `CCC(=O)N1CCc2cc(N3CC(C(=O)NCc4ccc(C)cc4)CC3=O)ccc21` (centres undefined), 756 s. The result for `CCCc1nnc(-c2cccnc2N2CCN(C(=O)c3ccoc3)CC2)o1` reads 728 s. Under `Cc1ccccc1Nc1c(-c2cc(Br)ccc2F)nc2cccc(C)n12` stands 814 s; under `CCCCCn1c(=O)c2ccccc2n(Cc2nc(-c3ccc(F)cc3)no2)c1=O`, 1270 s; under `COc1ccc(C2C(C(=O)N3CCN(C)CC3)c3cc(OC)c(OC)cc3C(=O)N2C)cc1` (centres undefined), 640 s. In turn, `Cc1ccc2nc(Cl)cc(=O)n2c1` showed an RP-LC retention time of 740 s.

`COC[C@@H]1CN(Cc2ccccn2)C[C@H]1c1nc(C2CC2)no1` yielded an RP-LC retention time of 602 s. As for `N#Cc1ccc(S(=O)(=O)N2CCOCCNC(=O)[C@H]3CCCC[C@H]32)cc1`, the RP-LC retention time turned out to be 747 s. For `Cc1noc(-c2nn(C)c3c2CN(C(=O)Cc2ccc(Cl)cc2)CC3)n1`, the RP-LC retention time is 762 s. Turning to `O=C(O)c1cccc(-c2ccc(N3CCCCCC3)nc2)c1`, the RP-LC retention time came to 627 s. The result for `CCOc1ccccc1C(=O)NC1CCN(C(=O)c2cn[nH]c2-c2ccc(F)cc2)CC1` reads 683 s.

Regarding `Cc1cc(N2CCC(C)CC2)n2nc(CN3CCN(c4ccccn4)CC3)nc2n1`, the RP-LC retention time amounted to 599 s. The result for `Cc1nc(-c2ccc(OC3CCN(C(=O)CCc4nc5ccccc5[nH]4)C3)cc2)no1` (centres undefined) reads 643 s; that for `Cc1nn(C)cc1S(=O)(=O)N(Cc1ccccc1)c1ccccc1`, 861 s; that for `COc1ccc(-c2noc(CN3N=NC4C(=O)N(c5ccc(C)c(Cl)c5)C(=O)C43)n2)c(OC)c1` (centres undefined), 974 s. Under `CCS(=O)(=O)N1CC(n2cc(C(=O)NCC3CC3)nn2)C1` stands 664 s; under `CC1CCN(c2cc(-c3noc(C(=O)N4CCc5ccccc5C4)n3)ccn2)CC1`, 1010 s. Under `O=C(Nc1ccc(Cl)cc1)C1CC(=O)N(c2n[nH]c3cccc(F)c23)C1` (centres undefined) stands 787 s. `Cc1cccc(CN2CC(=O)N(c3cccc(Cl)c3)[C@@H]3CS(=O)(=O)C[C@@H]32)c1` registered an RP-LC retention time of 892 s. The result for `O=C(Nc1ccc2nc(N3CCC(N4CCCCC4)CC3)cc(C(=O)O)c2c1)c1cccc(Cl)c1` reads 601 s; that for `COC(=O)C1CCN(C(=O)c2csc(Nc3ncccn3)n2)CC1`, 644 s. Under `O=C(Nc1ccc(-n2cnc(C(=O)N3CCC(Cc4ccccc4)CC3)c2)nc1)C1CC1` stands 860 s. Under `CCCn1c(C(=O)NN2CCCC2=O)cc2c(=O)n(C)c(=O)n(C)c21` stands 592 s; under `CC(=O)N1CCCSc2ccc(S(=O)(=O)N3CCN(c4cccc(C)c4)C(C)C3)cc21` (centres undefined), 982 s. As for `CN1C(=O)c2cccc(NC(=O)c3ccc(S(=O)(=O)N4CCOCC4)cc3)c2C1=O`, the RP-LC retention time turned out to be 813 s. In the case of `Cc1ccc(Nc2ncnc3nc[nH]c23)cc1Cl`, the RP-LC retention time amounted to 682 s. `COc1ccc(S(=O)(=O)N2CCN(c3cc(C)nc(Nc4ccc(C)cc4)n3)CC2)cc1Cl`: the RP-LC retention time was determined as 801 s. Under `Cc1cc(C(=O)CSc2nnnn2-c2ccccc2)c(C)n1Cc1ccco1` stands 969 s; under `CCn1c(C(=O)N2CCOCC2)cc2c(=O)oc3ccccc3c21`, 713 s; under `COc1ccc(F)cc1S(=O)(=O)NCCOc1ccc(-c2ccco2)nn1`, 742 s. The result for `O=C(NC1CC1)c1c2c(nc3ccccc13)CCC2` reads 566 s. The result for `CC1(C)Cc2cccc(OCC(=O)NCC3CCN(S(C)(=O)=O)CC3)c2O1` reads 715 s. For `O=C(Cn1cccc(-c2nc(-c3ccc(F)cc3)no2)c1=O)Nc1ccc(F)c(Cl)c1`, the RP-LC retention time amounted to 960 s. In turn, `CC(=O)N1CCc2cc(N3CC(C(=O)Nc4ccc(F)c(C)c4)CC3=O)ccc21` (centres undefined) returned an RP-LC retention time of 740 s.

Take `CC(C)NC(=O)C1CCCN(c2nc3ncn(CC(=O)Nc4ccccc4)c(=O)c3s2)C1` (centres undefined): the RP-LC retention time is 686 s. Under `COc1ccc(-c2nc(N(C)Cc3ccco3)c3ccccc3n2)cc1` stands 765 s. For `CCOC(=O)c1c(C)c(CCC(=O)NCCN2CCOCC2)n(C)c1C`, the RP-LC retention time is 597 s. Under `O=C(Nc1cccc2c(=O)cc(-c3nn[nH]n3)oc12)c1ccc(OCCCCc2ccccc2)cc1` stands 1180 s; under `Cc1ccc(Nc2c(-c3ccc(N4CCOCC4)cc3)nc3cc(C)ccn23)cc1`, 769 s. The result for `CNc1nc(Nc2ccccc2OC)nc2ccccc12` reads 659 s. The result for `Cn1nc(-c2nc(C3CC3)no2)c2c1CCN(C(=O)Nc1ccc(Cl)cc1)C2` reads 882 s; that for `CCc1noc(-c2ccnc(-n3cnc(C(=O)NC4CCCC4)c3)c2)n1`, 839 s; that for `COC(=O)CN1C(=O)Nc2ccc(C)cc2C1c1ccccc1` (centres undefined), 840 s. In turn, `COc1ccc(CCNC(=O)c2cc3c(=O)n(C)c(=O)n(C)c3s2)cc1OC` yielded an RP-LC retention time of 668 s. With `CCCn1cc(CCNC(=O)Nc2ccccc2C)c2cccnc21`, the RP-LC retention time amounted to 717 s. Under `Cc1ncc(Cl)cc1NCc1ccc(C(=O)N[C@@H](CC2CCCC2)C(=O)NC2CC2)s1` stands 837 s; under `Cc1c2ccnc(C(N)=O)c2c(C)c2c1[nH]c1ccccc12`, 619 s; under `CCc1ccc(N2C(=O)N(CC(=O)N3CCOc4ccc(C)cc43)C3CS(=O)(=O)CC32)cc1` (centres undefined), 966 s. Under `O=C(c1ccc(C(F)(F)F)cc1)N1CCC(n2c(-c3ccoc3)nc3cccnc32)C1` (centres undefined) stands 827 s; under `N#Cc1ccc(C(=O)N2CC(n3cc(C(=O)NCC4CC4)nn3)C2)cc1`, 701 s; under `Cc1ccc(S(=O)(=O)c2cnc(N3CCC4(CC3)OCCO4)nc2N)cc1`, 858 s.

Take `Cc1nc(-c2ccc(OC3CCN(C(=O)NC4CCCC4)C3)cc2)no1` (centres undefined): the RP-LC retention time was determined as 820 s. The result for `c1ccc(CNc2nnc(-c3nc(C4CC4)no3)c3ccccc23)cc1` reads 878 s; that for `COc1ccccc1-c1nnc(N)s1`, 598 s. Under `Cc1ccc(F)cc1S(=O)(=O)N(C)CC1CCOC1` (centres undefined) stands 836 s. Under `Cc1ccc(NC(=O)CSc2nc(N3CCCCC3)nc3ccccc23)cc1C` stands 795 s.
